# Laboratory results as given in patent US4970210A, “Triazinone lipoxygenase compounds” (Abbott Laboratories, priority 1988, dated 1990).
# What was measured:
# leukotriene biosynthesis = experiment: In vivo inhibition of leukotriene biosynthesis after oral administration, rat peritoneal anaphylaxis model; conditions: 0.25 h, 200 micro mol/kg oral dose, one hour prior to antigen challenge, peritoneal fluid 15 minutes after challenge, vs mean of control group
# Protocol: Inhibition of the biosynthesis of leukotrienes in vivo after oral administration of compound was determined using a rat peritoneal anaphylaxis model in a similiar manner as that described by Young and coworkers (Young, P. R.; Dyer, R. D.; Carter, G. W. Fed. Proc., Fed. Am Soc.Exp. Biol. 1985, 44 1185). In this model rats were injected intraperitoneally (ip) with rabbit antibody to bovine serum albumin (BSA) and three hours later injected ip with BSA to induce an antigen-antibody response. Rats were sacrificed 15 minutes after this challenge and the peritoneal fluids were collected and analyzed for leukotriene levels. Test compounds were administered by gauge one hour prior to the antigen challenge. Percent inhibition values were determined by comparing the treatment group to the mean of the control group.
# 5-lipoxygenase = biological target: T1, 5-lipoxygenase (Rattus norvegicus, UniProt P12527); experiment: Inhibition of 5-lipoxygenase (20,000×g supernatant from homogenized RBL-1 cells); format: biochemical; conditions: in vitro, read-out: IC50 (concentration of compound producing 50% enzyme inhibition)
# T1 construct: 20,000×g supernatant from homogenized RBL-1 cells; endogenous in cells; host or cells: RBL-1 cells (20,000×g supernatant of homogenate)
# T1 sequence (P12527 1-673): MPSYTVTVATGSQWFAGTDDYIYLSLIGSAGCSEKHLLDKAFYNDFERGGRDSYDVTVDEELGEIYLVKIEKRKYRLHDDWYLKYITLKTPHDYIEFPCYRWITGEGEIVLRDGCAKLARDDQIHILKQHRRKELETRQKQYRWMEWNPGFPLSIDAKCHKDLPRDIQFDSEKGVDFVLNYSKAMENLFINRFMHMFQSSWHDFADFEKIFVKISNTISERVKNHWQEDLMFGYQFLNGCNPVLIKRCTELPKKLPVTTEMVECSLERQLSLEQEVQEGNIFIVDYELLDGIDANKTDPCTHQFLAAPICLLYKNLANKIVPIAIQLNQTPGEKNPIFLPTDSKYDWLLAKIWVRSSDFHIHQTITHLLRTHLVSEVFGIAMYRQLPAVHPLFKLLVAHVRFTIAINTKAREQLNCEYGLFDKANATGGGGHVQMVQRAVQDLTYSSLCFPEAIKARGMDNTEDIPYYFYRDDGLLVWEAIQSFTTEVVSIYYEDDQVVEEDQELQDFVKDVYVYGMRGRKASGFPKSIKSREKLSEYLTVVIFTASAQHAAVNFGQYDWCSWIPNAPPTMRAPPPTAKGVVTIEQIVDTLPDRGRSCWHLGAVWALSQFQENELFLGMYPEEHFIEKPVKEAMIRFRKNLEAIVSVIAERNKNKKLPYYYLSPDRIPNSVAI
# Protocol: Inhibition of 5-lipoxygenase activity was determined using the 20,000×g supernatant from homogenized RBL-1 cells in a similiar manner as that described by Dyer and coworkers (Dyer, R. D.; Haviv., F.; Hanel, A. M.; Bornemeier, D. A.; Carter, G. W. Fed. Proc.,Fed.Am.Soc. Exp. Biol. 1984, 43,1462a). IC50 values (concentration of compound producing 50% enzyme inhibition) were calculated by linear regression analysis of percentage inhibition versus log inhibitor concentration plots.
SMILES,inhibition in vivo at 200 µmol/kg (leukotriene biosynthesis) [%],IC50 (5-lipoxygenase) [µM]
"CC1CN(c2ccccc2)NC(=O)N1 (racemic) [Example 81, D,L-5-methyl-1-phenyl-2H,4H-tetrahydro-1,2,4-triazin-3-one]",84,
"CC(C)C1CN(c2ccccc2)NC(=O)N1 (racemic) [Example 82, D,L-5-i-propyl-1-phenyl-2H,4H-tetrahydro-1,2,4-triazin-3-one]",,7
"CCCCC1CN(c2ccccc2)NC(=O)N1 (racemic) [Example 83, D,L-5-n-butyl-1-phenyl-2H 4H-tetrahydro-1,2,4-triazin-3-one]",,2
"CC1CN(c2cccc(Cl)c2)NC(=O)N1 (racemic) [Example 85, D,L-5-methyl-1-(3-chlorophenyl)-2H,4H-tetrahydro-1,2,4-triazin-3-one]",,3
"CCC1CN(c2ccccc2)NC(=O)N1 (racemic) [Example 86, D,L-5-ethyl-1-phenyl-2H,4H-tetrahydro-1,2,4-triazin-3-one]",,7
"N#Cc1cccc(N2CCCC(=O)N2)c1 [Example 1, 1-(3'-cyanophenyl)-2H-tetrahydropyridazin-3-one]",,11
"COc1cccc(N2CCCC(=O)N2)c1 [Example 3, 1-(3'-methoxyphenyl)-2H-tetrahydropyridazin-3-one]",,6
"O=C1CCCN(c2ccc(Oc3ccccc3)cc2)N1 [Example 6, 1-(4'-phenoxyphenyl)-2H-tetrahydropyridazin-3-one]",,2
"O=C1CCCN(c2cccc(C(F)(F)F)c2)N1 [Example 8, 1-(3'-trifluoromethylphenyl)-2H-tetrahydropyridazin-3-one]",,5
"CCc1cccc(N2CCCC(=O)N2)c1 [Example 10, 1-(3'-ethylphenyl)-2H-tetrahydropyridazin-3-one]",,3
"CCCCCCCCc1ccc(N2CCCC(=O)N2)cc1 [Example 15, 1-(4'-octylphenyl)-2H-tetrahydropyridazin-3-one]",,6
"CCOC(=O)c1cccc(N2CCCC(=O)N2)c1 [Example 16, 1-(3'-ethoxycarbonylphenyl)-2H-tetrahydropyridazin-3-one]",,5
"Cc1cc(C)cc(N2CCCC(=O)N2)c1 [Example 24, 1-(3',5'-dimethylphenyl)-2H-tetrahydropyridazin-3-one]",,3
"O=C1CCCN(c2cc(Cl)cc(Cl)c2)N1 [Example 26, 1-(3',5'-dichlorophenyl)-2H-tetrahydropyridazin-3-one]",,1
"CCCCC1CCN(c2ccccc2)NC1=O (stereo not drawn) [Example 38, 1-phenyl-4-butyl-2H-tetrahydropyridazin-3-one]",,0.6
"CCCCC1CC(=O)NN(c2ccccc2)C1 (stereo not drawn) [Example 40, 1-phenyl-5-butyl-2H-tetrahydropyridazin-3-one]",,0.5
"O=C1CCCN(c2cccc(Cl)c2)N1 [Example 46, 1-(3'-chlorophenyl)-2H-tetrahydropyridazin-3-one]",,2.5
"O=C1CCCN(c2ccccc2F)N1 [Example 51, 1-(2'-fluorophenyl)-2H-tetrahydropyridazin-3-one]",,10
"O=C1NCCN(c2ccccc2)N1 [Example 68, 1-(phenyl)-2 H,4 H-tetrahydro-1,2,4-triazin-3-one]",85,21

SMILES,inhibition in vivo at 200 µmol/kg (leukotriene biosynthesis) [%],IC50 (5-lipoxygenase) [µM]
"Cc1cccc(N2CCNC(=O)N2)c1 [Example 70, 1-(3'-methylphenyl)-2 H,4 H-tetrahydro-1,2,4-triazin-3-one]",66,15
"O=C1NCCN(c2cccc(Br)c2)N1 [Example 73, 1-(3'-bromophenyl)-2 H,4 H-tetrahydro-1,2,4-triazin-3-one]",46,5
"CCc1cccc(N2CCNC(=O)N2)c1 [Example 74, 1-(3'-ethylphenyl)-2 H,4 H-tetrahydro-1,2,4-triazin-3-one]",58,13
"CSc1cccc(N2CCNC(=O)N2)c1 [Example 75, 1-(3'-methylthiophenyl)-2 H,4 H-tetrahydro-1,2,4-triazin-3-one]",73,14
"O=C1NCCN(c2cccc(C(F)(F)F)c2)N1 [Example 76, 1-(3'-trifluoromethylphenyl)-2 H,4 H-tetrahydro-1,2,4-triazin-3-one]",,17
"O=C1NCCN(c2cccc(Cl)c2)N1 [Example 78, 1-(3'-chlorophenyl)-2 H,4 H, tetrahydro-1,2,4-triazin-3-one]",80,6
"O=C1NCCN(c2cccc(OCc3ccccc3)c2)N1 [Example 79, 1-(3'-benzyloxyphenyl)-2 H,4 H-tetrahydro-1,2,4-triazin-3-one]",,1
"Cc1cc(C)cc(N2CCNC(=O)N2)c1 [Example 80, 1-(3',5'-dimethylphenyl)-2 H,4 H-tetrahydro-1,2,4-triazin-3-one]",,12
"CC1(C)CN(c2ccccc2)NC(=O)N1 [Example 87, 5,5-dimethyl-1-phenyl-2H,4H-tetrahydro-1,2,4-triazin-3-one]",,7
"O=C1NCCN(c2cccc(F)c2)N1 [Example 88, 1-(3-fluorophenyl)-2H,4H-tetrahydro-1,2,4-triazin-3-one]",,19
"O=C1NCCN(c2ccccn2)N1 [Example 90, 1-(2-pyridyl)-2H,4H-tetrahydro-1,2,4-triazin-3-one]",,26
"O=C1NN(c2ccccc2)CCN1Cc1ccccc1 [Example 99, 4-Benzyl-1-phenyl-2H,4H-tetrahydro-1,2,4-triazin-3-one]",,8
"S=C1NCCN(c2ccccc2)N1 [Example 102, 1-Phenyl-2H,4H-tetrahydro-1,2,4-triazin-3-thione]",,17
"S=C1NCCN(c2cccc(Cl)c2)N1 [Example 103, 1-(3-Chlorophenyl)-2H,4H-tetrahydro-1,2,4-triazin-3-thione]",,5
"Cc1cccc(N2CCCC(=S)N2)c1 [Example 106, 1-(3'-methylphenyl)-2H-tetrahydro-pyridazin-3-thione]",,1
"CC(=O)N1CCN(c2ccccc2)NC1=O [Example 107, 4-Acetyl-1-phenyl-2H,4H-tetrahydro-1,2,4-triazin-3-one]",,3
"CC(C)C(=O)N1CCN(c2ccccc2)NC1=O [Example 109, 4-Isobutyryl-1-phenyl-2H,4H-tetrahydro-1,2,4-triazin-3-one]",,1
"CC(=O)N1CCN(c2cccc(Cl)c2)NC1=O [Example 111, 4-Acetyl-1-(3-chlorophenyl)-2H,4H-tetrahydro-1,2,4-triazin-3-one]",74,1
"O=C1CCCN(c2ccccc2)N1COCc1ccccc1 [Example 113, 1-phenyl-2-benzyloxymethyl-2 H-tetrahydropyridazin-3-one]",,71
